Source: patent US20120148682A1

Tests used:
Phytophthora infestans = type: in vivo; conditions: 50 ppm hydrazone with 50 μM CuCl2.2H2O, applied 24 h before inoculation, tomato plants, 7 days after inoculation
[1] = tested on: Leptosphaeria nodorum (LEPTNO); assay: In vitro fungitoxicity (growth inhibition) in copper-minus and copper-plus medium; type: cell-based
Protocol: Trace elements (minus CuSO4), and vitamins described by Coursen and […] were added from concentrated stock solutions and the entire medium was sterilized by filtration. […] […] was grown on potato dextrose agar in 9 cm diameter petri dishes for 7 days. Sterile deionized water (20 mL) was added to a culture plate and spores suspended by scraping the surface gently with a sterile plastic loop. The resulting suspension was filtered through a double layer of sterile cheesecloth. Filtered spore suspension (5 mL) was centrifuged in a bench centrifuge at 2000 rpm for 2 min. […] Microtiter plates were inoculated with 100 μL of this spore suspension and the plates incubated at 25° C. for 72 h before assessing fungal growth by measuring light scattering in a NepheloStar plate reader. Growth inhibition was determined by comparing growth in the presence of test compound with growth in control wells lacking test compound. Results for growth inhibition by test compounds in copper-plus medium (“% Inhn. Plus Copper Observed”) were compared with predicted values (“% Inhn. Plus Copper Predicted”) that were calculated using the formula set forth by S. R. […] Minus Copper Observed”) and the inhibition attributed to copper chloride alone, as determined by comparing growth in copper-minus and copper-plus media without any test compound across experiments. Results illustrate that hydrazones and copper produce a synergistic fungitoxic effect towards […].

Ustilago maydis = assay: In vitro fungitoxicity in copper-minus and copper-plus medium; type: cell-based; conditions: CuCl2 10 μM, without test compound
Protocol: Test compounds were dissolved in dimethylsulfoxide (DMSO) at 200 μg/mL and 1 μL aliquots were added to two wells of flat-bottomed 96-well microtiter plates. […] Control wells, included for each medium, received 1 uL DMSO and 100 μL of medium. Ustilago maydis was grown in 50 mL potato dextrose broth with shaking at 25° C. for 24 h. A 10 mL aliquot of the culture was centrifuged at 2000 rpm for 2 min, resuspended in 10 mL of sterile Chelex 100-treated water, and centrifuged again. […] Microtiter plate wells containing test compound of DMSO (control) as described above were inoculated with 100 μL of this spore suspension and the plates incubated at 25° C. for 48 h before assessing fungal growth by measuring light scattering in a NepheloStar plate reader. Growth inhibition was determined by comparing growth in the presence of test compound with growth in control wells lacking test compound. […] Plus Copper Observed”) were compared with predicted results (“% Inhn. Plus Copper Predicted”) that were calculated using the formula set forth by S. R. […] Minus Copper Observed”) and the inhibition attributed to copper chloride alone, as determined by comparing growth in copper-minus and copper-plus media without any test compound. Results illustrate that hydrazones and copper produce a synergistic fungitoxic effect towards Ustilago maydis.

[2] = tested on: Septoria tritici isolate USA-184; assay: as above; type: cell-based; conditions: CuCl2 1 μM, without test compound
Protocol: Test compounds were dissolved in dimethylsulfoxide (DMSO) at 10 μg/mL and 1 μL aliquots were added to two wells of flat-bottomed 96-well microtiter plates. […] Control wells, included for each medium, received 1 uL DMSO and 100 μL of medium. Septoria tritici isolate USA-184 was grown on potato dextrose agar at 18° C. under black lights for 3 days. A loopful of spores was transferred from the culture to a 15 mL tube containing 5 mL of sterile Chelex-treated water. The spores were centrifuged at 2000 rpm for 2 min, resuspended in 10 mL water, and centrifuged again. […] Microtiter plate wells containing test compound of DMSO (control) as described above were inoculated with 100 μL of this spore suspension and the plates incubated at 25° C. for 90 h before assessing fungal growth by measuring light scattering in a NepheloStar plate reader. Growth inhibition was determined by comparing growth in the presence of test compound with growth in control wells lacking test compound. […] Plus Copper Observed”) were compared with predicted results (“% Inhn. Plus Copper Predicted”) that were calculated using the formula set forth by S. R. […] Minus Copper Observed”) and the inhibition attributed to copper chloride alone, as determined by comparing growth in copper-minus and copper-plus media without any test compound. […]

Phytophthora capsici = assay: In vitro fungitoxicity in copper-minus AS and copper-plus AS medium; type: cell-based; conditions: CuCl2 50 uM, without test compound, across experiments
Protocol: Plates were inoculated with 7-mm plugs from a 1-week old culture, incubated at 25° C. in the dark for 3 days, and then placed under fluorescent lights for 4 days to induce sporulation. Zoospore release from sporangia was induced by adding 15 mL of sterile deionized water (which had been treated with Chelex 100 resin using 0.5 g resin per liter of water by stirring at room temperature for 1 h) to each plate, and incubating for 10 min at 25° C. followed by 20 min at 4° C. The plates were returned to 25° C. for 10 min and the aqueous suspension of released zoospores was recovered. The zoospore suspension was adjusted to 5×10^4 spores/mL by dilution into Chelex 100-treated water. Microtiter plates were inoculated with 100 μL of spore suspension and incubated at 25° C. for 48 h before assessing fungal growth by measuring light scattering in a NepheloStar plate reader. Growth inhibition was determined by comparing growth in the presence of test compound with growth in control wells lacking test compound. Results for growth inhibition by test compounds in copper-plus AS medium (“% Inhn. Plus Copper Observed”) were compared with predicted values (“% Inhn. Plus Copper Predicted”) that were calculated using the formula set forth by S. R. […]

[3] = tested on: Staphylococcus aureus, Escherichia coli, Aspergillus niger and A. flavus; conditions: Proceedings of the National Academy of Sciences, India 1991; cited from earlier work

In the case of `O=C(N/N=C/c1cccc(C(F)(F)F)c1O)c1ccc(C(F)(F)F)cc1O` [Compound 42], the melting point is reported as 248 to 253 °C, the “TLB % Control” value (Phytophthora infestans) is reported as 100.0% and the “LEPTNO % Inhn. Plus Copper Observed” value ([1]; 0.05 μg/mL compound, copper-plus medium (CuCl2, 10 μM), 72 h) is reported as 98.4%. For the same compound, the inhibition of growth at 0.05 µg/mL ([1]; Parastagonospora nodorum, 0.05 μg/mL compound, copper-minus medium, 72 h, read-out: LEPTNO % Inhn. Minus Copper Observed) was 8.8%.
With `[Cl][Cu][Cl]` [CuCl2, copper chloride] the “% Inhn. copper chloride alone” value (Ustilago maydis) was 11.9%, the “% Inhibition copper chloride alone” value [2] was 0% and the “% Inhibition copper chloride alone” value ([2]; listed as copper chloride) was “no effect on growth”. For the same compound, the “LEPTNO % Inhn. copper chloride alone” value ([1]; CuCl2 10 μM, without test compound, across experiments) was 7.1 ± 6.0% and the “% Inhn copper chloride alone” value (Phytophthora capsici) was 4.5 ± 7.9%.
For `O=C(NN=Cc1ccccc1O)c1ccccc1O` [o-hydroxybenzaldehyde-N-salicyloylhydrazone], the antimicrobial activity [3] is listed as “Antimicrobial activity has been reported”.
